Reference: ChEMBL document CHEMBL4431366, “Identification of a benzo imidazole thiazole derivative as the specific irreversible inhibitor of protein tyrosine phosphatase” (Bioorg Med Chem Lett, 2016)
pIC50, pKi: −log10 of the molar value. Each block holds one compound with its values, some of them ahead of it. The source made the active and inactive calls. The calls are words filed in the database; no cut-off is given here.

Columns and labels:
[1] = target: T1, Tyrosine-protein phosphatase non-receptor type 5 (Homo sapiens, UniProt P54829); experiment: (§1) Inhibition of N-terminal His-tagged STEP catalytic domain (unknown origin) expressed in Escherichia coli BL21 (DE3) cells using p-nitrophenyl phosphate as substrate
T1 sequence (P54829 whole entry): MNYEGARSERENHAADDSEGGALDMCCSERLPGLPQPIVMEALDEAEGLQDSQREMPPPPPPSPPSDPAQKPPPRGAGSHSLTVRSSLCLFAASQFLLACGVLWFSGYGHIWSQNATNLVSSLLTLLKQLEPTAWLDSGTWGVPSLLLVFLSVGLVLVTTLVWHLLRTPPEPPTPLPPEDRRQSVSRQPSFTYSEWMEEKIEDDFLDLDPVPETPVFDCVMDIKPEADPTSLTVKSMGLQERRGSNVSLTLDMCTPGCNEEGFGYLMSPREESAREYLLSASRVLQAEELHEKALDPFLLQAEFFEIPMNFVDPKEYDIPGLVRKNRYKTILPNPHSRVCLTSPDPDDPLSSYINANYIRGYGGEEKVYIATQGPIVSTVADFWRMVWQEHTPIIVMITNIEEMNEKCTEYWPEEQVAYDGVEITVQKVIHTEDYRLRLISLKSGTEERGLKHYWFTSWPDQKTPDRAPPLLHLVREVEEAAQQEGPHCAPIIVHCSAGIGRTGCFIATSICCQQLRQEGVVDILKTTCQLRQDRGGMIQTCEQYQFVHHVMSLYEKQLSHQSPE

[2] = target: T2, Tyrosine-protein phosphatase non-receptor type 9 (Homo sapiens) (UniProt P43378); experiment: Time-dependent irreversible inhibition of N-terminal His-tagged MEG2 (277 to 583 residues) (unknown origin) expressed in Escherichia coli BL21 (DE3) cells preincubated with enzyme followed by p-nitrophenyl phosphate substrate addition
T2 sequence (whole entry): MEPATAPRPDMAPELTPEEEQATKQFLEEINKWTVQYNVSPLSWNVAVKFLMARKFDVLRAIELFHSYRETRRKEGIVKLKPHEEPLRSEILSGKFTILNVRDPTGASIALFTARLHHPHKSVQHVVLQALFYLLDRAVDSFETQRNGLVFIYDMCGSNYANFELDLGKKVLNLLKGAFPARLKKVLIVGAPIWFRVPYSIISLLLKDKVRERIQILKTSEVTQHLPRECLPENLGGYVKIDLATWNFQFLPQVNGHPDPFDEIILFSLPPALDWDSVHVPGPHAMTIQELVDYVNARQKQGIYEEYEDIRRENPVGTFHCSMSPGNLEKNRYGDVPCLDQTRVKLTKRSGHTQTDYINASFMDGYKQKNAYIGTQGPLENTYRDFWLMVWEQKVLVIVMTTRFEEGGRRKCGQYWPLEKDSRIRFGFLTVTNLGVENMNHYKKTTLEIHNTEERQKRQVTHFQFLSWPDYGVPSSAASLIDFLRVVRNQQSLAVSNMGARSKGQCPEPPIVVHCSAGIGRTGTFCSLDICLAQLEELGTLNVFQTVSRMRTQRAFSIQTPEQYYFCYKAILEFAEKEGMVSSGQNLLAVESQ

[3] = target: T3, Protein phosphatase 1B (Homo sapiens) (UniProt O75688); experiment: Time-dependent irreversible inhibition of N-terminal His-tagged PPM1B (unknown origin) expressed in Escherichia coli BL21 (DE3) cells at 80 uM preincubated with enzyme followed by p-nitrophenyl phosphate substrate addition
T3 sequence (whole entry): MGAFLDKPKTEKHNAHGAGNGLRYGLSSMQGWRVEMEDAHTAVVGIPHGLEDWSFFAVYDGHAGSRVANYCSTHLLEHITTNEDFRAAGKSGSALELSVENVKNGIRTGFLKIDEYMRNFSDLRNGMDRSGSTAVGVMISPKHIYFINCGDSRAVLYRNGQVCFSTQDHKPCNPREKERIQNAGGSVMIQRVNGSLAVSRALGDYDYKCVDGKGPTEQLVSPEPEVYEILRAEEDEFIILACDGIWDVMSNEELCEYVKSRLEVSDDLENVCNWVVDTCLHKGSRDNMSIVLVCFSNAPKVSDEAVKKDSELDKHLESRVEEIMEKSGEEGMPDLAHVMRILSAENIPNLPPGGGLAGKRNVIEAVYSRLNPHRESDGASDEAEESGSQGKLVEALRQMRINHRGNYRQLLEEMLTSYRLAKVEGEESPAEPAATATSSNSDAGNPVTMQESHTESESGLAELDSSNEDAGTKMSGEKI

[4] = target: T4, Tyrosine-protein phosphatase non-receptor type 5 (Homo sapiens) (UniProt P54829)
T4 sequence (whole entry): T1 sequence (P54829 whole entry)
Description: Time-dependent irreversible inhibition of N-terminal His-tagged STEP catalytic domain (unknown origin) expressed in Escherichia coli BL21 (DE3) cells at 100 uM preincubated with enzyme followed by p-nitrophenyl phosphate substrate addition

[5] = target: T5, Protein phosphatase 1G (Homo sapiens) (UniProt O15355); experiment: Time-dependent irreversible inhibition of N-terminal His-tagged PPM1G (unknown origin) expressed in Escherichia coli BL21 (DE3) cells at 80 uM preincubated with enzyme followed by p-nitrophenyl phosphate substrate addition
T5 sequence (whole entry): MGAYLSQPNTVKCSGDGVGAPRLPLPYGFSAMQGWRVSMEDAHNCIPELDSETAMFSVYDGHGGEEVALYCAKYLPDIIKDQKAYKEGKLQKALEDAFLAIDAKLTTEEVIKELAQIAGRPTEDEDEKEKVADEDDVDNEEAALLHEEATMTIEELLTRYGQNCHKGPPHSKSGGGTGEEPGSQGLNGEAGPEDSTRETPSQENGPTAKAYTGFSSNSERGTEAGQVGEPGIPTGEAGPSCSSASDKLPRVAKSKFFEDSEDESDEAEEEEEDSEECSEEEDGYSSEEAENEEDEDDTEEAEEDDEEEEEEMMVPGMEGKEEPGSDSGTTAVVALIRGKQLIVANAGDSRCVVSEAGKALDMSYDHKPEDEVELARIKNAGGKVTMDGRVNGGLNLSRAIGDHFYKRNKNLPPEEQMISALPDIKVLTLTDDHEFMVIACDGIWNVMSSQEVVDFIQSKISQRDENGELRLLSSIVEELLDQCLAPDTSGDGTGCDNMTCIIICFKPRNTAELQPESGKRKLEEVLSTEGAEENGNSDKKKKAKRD

[6] = target: T6, Tyrosine-protein phosphatase non-receptor type 1 (Homo sapiens) (UniProt P18031); experiment: Time-dependent irreversible inhibition of N-terminal His-tagged PTP1B (unknown origin) expressed in Escherichia coli BL21 (DE3) cells preincubated with enzyme followed by p-nitrophenyl phosphate substrate addition
T6 sequence (whole entry): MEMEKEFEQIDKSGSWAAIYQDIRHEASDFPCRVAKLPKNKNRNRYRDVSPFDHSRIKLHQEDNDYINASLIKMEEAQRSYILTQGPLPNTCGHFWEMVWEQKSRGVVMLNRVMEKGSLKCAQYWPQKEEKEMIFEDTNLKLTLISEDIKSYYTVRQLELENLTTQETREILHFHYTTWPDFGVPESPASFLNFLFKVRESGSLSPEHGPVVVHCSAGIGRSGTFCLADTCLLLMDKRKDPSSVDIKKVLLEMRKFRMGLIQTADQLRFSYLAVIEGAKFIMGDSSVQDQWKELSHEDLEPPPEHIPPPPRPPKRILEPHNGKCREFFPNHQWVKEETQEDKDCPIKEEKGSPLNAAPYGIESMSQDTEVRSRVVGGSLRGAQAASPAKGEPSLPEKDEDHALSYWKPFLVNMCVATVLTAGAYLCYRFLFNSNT

[7] = target: T4, Tyrosine-protein phosphatase non-receptor type 5 (Homo sapiens); experiment: (§2) Time-dependent irreversible inhibition of N-terminal His-tagged STEP catalytic domain (unknown origin) expressed in Escherichia coli BL21 (DE3) cells preincubated with enzyme followed by p-nitrophenyl phosphate substrate addition
[8] = target: T1, Tyrosine-protein phosphatase non-receptor type 5; experiment: as §2
[9] = target: T7, Tyrosine-protein phosphatase non-receptor type 22 (Homo sapiens) (UniProt Q9Y2R2); experiment: Time-dependent irreversible inhibition of N-terminal His-tagged LYP (1 to 294 residues) (unknown origin) expressed in Escherichia coli BL21 (DE3) cells preincubated with enzyme followed by p-nitrophenyl phosphate substrate addition
T7 sequence (whole entry): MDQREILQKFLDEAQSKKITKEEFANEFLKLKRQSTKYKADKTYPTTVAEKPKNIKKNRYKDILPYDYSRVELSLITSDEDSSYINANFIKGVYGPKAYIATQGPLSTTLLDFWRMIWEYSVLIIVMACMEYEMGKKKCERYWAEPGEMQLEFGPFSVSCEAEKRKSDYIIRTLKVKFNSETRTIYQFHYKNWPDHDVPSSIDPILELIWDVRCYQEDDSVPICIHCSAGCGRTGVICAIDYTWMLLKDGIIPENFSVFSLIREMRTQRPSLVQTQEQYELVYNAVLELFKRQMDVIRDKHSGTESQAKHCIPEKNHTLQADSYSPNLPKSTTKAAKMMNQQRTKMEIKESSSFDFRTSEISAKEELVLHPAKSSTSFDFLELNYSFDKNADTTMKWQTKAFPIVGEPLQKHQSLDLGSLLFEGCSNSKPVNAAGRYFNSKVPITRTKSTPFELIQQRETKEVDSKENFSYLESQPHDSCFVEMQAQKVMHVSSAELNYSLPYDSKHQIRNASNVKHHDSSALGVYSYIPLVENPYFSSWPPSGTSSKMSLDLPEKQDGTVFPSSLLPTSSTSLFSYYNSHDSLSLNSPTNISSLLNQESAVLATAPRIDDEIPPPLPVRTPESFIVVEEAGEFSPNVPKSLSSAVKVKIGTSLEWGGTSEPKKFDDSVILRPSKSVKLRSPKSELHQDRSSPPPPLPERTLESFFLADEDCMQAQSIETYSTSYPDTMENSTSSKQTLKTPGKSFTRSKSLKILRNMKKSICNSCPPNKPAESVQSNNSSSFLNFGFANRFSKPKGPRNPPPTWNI

Bacteria = experiment: Time-dependent irreversible inhibition of N-terminal His-tagged bacterial YOPH expressed in Escherichia coli BL21 (DE3) cells preincubated with enzyme followed by p-nitrophenyl phosphate substrate addition
[10] = target: T4, Tyrosine-protein phosphatase non-receptor type 5 (Homo sapiens); experiment: as §1
[11] = target: T8, Protein phosphatase 1A (Homo sapiens) (UniProt P35813); experiment: Time-dependent irreversible inhibition of N-terminal His-tagged PPM1A (unknown origin) expressed in Escherichia coli BL21 (DE3) cells at 80 uM preincubated with enzyme followed by p-nitrophenyl phosphate substrate addition
T8 sequence (whole entry): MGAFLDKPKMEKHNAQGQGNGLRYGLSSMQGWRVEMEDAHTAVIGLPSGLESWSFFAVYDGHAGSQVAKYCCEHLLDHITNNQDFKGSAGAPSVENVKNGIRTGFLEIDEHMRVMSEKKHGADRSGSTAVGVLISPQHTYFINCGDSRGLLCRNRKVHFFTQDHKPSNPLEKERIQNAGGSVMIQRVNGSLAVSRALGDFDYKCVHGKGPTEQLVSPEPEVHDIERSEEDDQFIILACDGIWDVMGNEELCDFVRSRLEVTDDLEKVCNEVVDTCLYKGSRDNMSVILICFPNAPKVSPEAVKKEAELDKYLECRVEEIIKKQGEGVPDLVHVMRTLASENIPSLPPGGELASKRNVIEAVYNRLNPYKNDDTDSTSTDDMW

pIC50 [1]: < 3.52
SMILES: Cc1ccc([N+](=O)[O-])cc1-c1ccc(/C=c2\sc3nc4ccccc4n3c2=O)o1

pIC50 [1]: < 3.52
SMILES: O=C(CSc1nc2cc(Cl)ccc2o1)Nc1ccc(C(=O)O)cc1

K [2]: 0.0463 min⁻¹ | TDI [3]: Active | TDI [4]: Active | TDI [5]: Active | K [6]: 0.0859 min⁻¹ | K [7]: 0.0439 min⁻¹ | Kinact [7]: 0.068 s⁻¹ | pKi [8]: 4.67 | K [9]: 0.0272 min⁻¹ | inhibition [10]: Dose-dependent effect | pIC50 [1]: 5.08 | TDI [11]: Active
SMILES: Cc1cc(/C=c2/sc3nc4ccccc4n3c2=O)c(C)n1-c1cccc(C(=O)O)c1
K (Bacteria): 0.0486 min⁻¹

pIC50 [1]: < 3.52
SMILES: O=C(O)c1cccc(/C=c2/sc3nc4ccccc4n3c2=O)c1

pIC50 [1]: 3.56
SMILES: O=C(O)c1ccc(N2C(=O)c3ccc(Br)cc3C2=O)cc1O

pIC50 [1]: < 3.52
SMILES: COc1cc(/C=c2/sc3nc4ccccc4n3c2=O)cc(Cl)c1OCc1cccc(C(=O)O)c1

pIC50 [1]: < 3.52
SMILES: O=C(O)c1cc2ccoc2cc(C(=O)O)c1=O

pIC50 [1]: < 3.52
SMILES: Cc1cc2cc(OCC(=O)O)ccc2n1-c1ccc(Cl)cc1
